In data set [1] the target is T1, GPR54 (Homo sapiens (Human), UniProt Q969F8). As to the kind of experiment: Flipr assay of GPR54 agonist activity (increase in intracellular Ca2+ ion concentration). To be noted: for activity at 0.01 µM / % Activity: signal upon addition of 10 nM compound, based on signal of 1 μM kisspeptin-10 as 100%. Type of data set: cell-based.
Protocol: The GPR54 agonist activity of the obtained compounds was evaluated by Flipr assay measuring increase in the intracellular Ca^2+ ion concentration caused by stimulation of receptor as a signal.
Another data set addresses MMP9 (Homo sapiens (Human), UniProt P14780). As to the kind of experiment: Resistance to decomposition by matrix protease MMP9. Type of data set: in vitro ADME. The settings on record: for retention after treatment with MMP9: 72 hr, in words. The source says:
(§1) Furthermore, the resistance of the present invention to the decomposition by matrix protease (MMP) was examined. […] However, only about 50% of compound 1 was retained.

The conditions of data set [2]: serum.
Protocol: (§2) In addition, the half-life (t1/2) of the compound in the serum was measured.
Data set [3] can be described thus: Half-life of the compound in the serum. The settings on record: for half-life: serum, t1/2, in the serum; for t1/2: in the serum.
Protocol: as §2
In a further data set the target is MMP2 (Homo sapiens (Human), UniProt P08253). As to the kind of experiment: Resistance to decomposition by matrix protease MMP2. Type of data set: in vitro ADME. The settings on record: for retention after treatment with MMP2: 48 hr, in words.
Excerpt: as §1

Data set [4] deals with T1, GPR54. As to the kind of experiment: Binding inhibitory test using membrane fraction of human GPR54-expressing cell and [125I]-Metastin 40-54.
Protocol: A binding inhibitory test using membrane fraction of human GPR54-expressing cell and [^125I]-Metastin 40-54 was performed, and IC50 value was calculated (see non-patent document 2).

Read-outs that look alike come from different tables or passages of the source.

The half-life is how long it takes for the measured level to halve. Usually IC50 stands for the concentration that gives 50% inhibition. The low end stands for greater potency, the high end for weaker potency.

T1 sequence (Q969F8 whole entry): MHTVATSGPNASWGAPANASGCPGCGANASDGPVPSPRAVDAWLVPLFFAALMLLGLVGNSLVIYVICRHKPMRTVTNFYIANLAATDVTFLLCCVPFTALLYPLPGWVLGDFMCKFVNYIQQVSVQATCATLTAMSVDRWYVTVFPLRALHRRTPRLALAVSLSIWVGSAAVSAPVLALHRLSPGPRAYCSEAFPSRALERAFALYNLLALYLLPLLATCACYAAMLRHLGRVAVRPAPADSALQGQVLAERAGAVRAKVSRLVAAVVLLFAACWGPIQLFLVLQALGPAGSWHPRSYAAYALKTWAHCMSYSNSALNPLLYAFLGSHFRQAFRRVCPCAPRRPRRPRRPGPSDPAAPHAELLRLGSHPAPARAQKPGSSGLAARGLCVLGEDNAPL

As to `CC(C)C[C@H](NC(=O)CNC(=O)[C@H](Cc1ccccc1)NC(=O)c1ccc(F)cc1)C(=O)N[C@@H](CCCN=C(N)N)C(=O)N[C@@H](Cc1c[nH]c2ccccc12)C(N)=O` [Compound 1, reference compound], the activity at 0.01 µM on GPR54 [1] turned out to be 94.7%. Moreover, the remaining at 72 h on MMP9 (isolated matrix protease MMP9, read-out: amount retained after treatment with MMP9) is roughly 50%. Also, in data set [2], the t1/2 turned out to be 6.6 h.
As for `CC(C)C/C(=C\[C@@H](O)CNC(=O)[C@H](Cc1ccccc1)NC(=O)c1ccc(F)cc1)C(=O)N[C@@H](CCCNC(=N)N)C(=O)N[C@@H](Cc1c[nH]c2ccccc12)C(N)=O` [Compound 22], the half-life in data set [3] is 60 h. Moreover, the activity at 0.01 µM on GPR54 [1] was found to be 18.7%.
Take `CC(C)CC(C[C@@H](O)CNC(=O)[C@H](Cc1ccccc1)NC(=O)c1ccc(F)cc1)C(=O)N[C@@H](CCCNC(=N)N)C(=O)N[C@@H](Cc1c[nH]c2ccccc12)C(N)=O` (single isomer, unassigned) [Compound 24b]: the t1/2 in data set [3] was 54 h. Besides, the “% Activity” value on GPR54 [1] is recorded as 53.9%.
In data set [3], `CC(C)C/C(=C\CCNC(=O)[C@H](Cc1ccccc1)NC(=O)c1ccc(F)cc1)C(=O)N[C@@H](CCCNC(=N)N)C(=O)N[C@@H](Cc1c[nH]c2ccccc12)C(N)=O` [Compound 21] gave a half-life of 52 h. On GPR54 [1], the activity at 0.01 µM turned out to be 49.3%.
In the same order, the values of `CC(C)C[C@H](CCCNC(=O)[C@H](Cc1ccccc1)NC(=O)c1ccc(F)cc1)C(=O)N[C@@H](CCCNC(=N)N)C(=O)N[C@@H](Cc1c[nH]c2ccccc12)C(N)=O` [Compound 20] are 45 h and 70.3%.
As for `CC(C)CC(C[C@H](O)CNC(=O)[C@H](Cc1ccccc1)NC(=O)c1ccc(F)cc1)C(=O)N[C@@H](CCCNC(=N)N)C(=O)N[C@@H](Cc1c[nH]c2ccccc12)C(N)=O` (single isomer, unassigned) [Compound 25b], the t1/2 in data set [3] amounted to 35 h. At MMP2, the “retention after treatment with MMP2” value is listed as “retained even after 48 hr with scarce decomposition”. For the same compound, the “% Activity” value at GPR54 [1] amounted to 95.6%. For the same compound, the “retention after treatment with MMP9” value on MMP9 is reported as “retained even after 72 hr with scarce decomposition”.
For `CC(C)C/C(=C\[C@H](O)CNC(=O)[C@H](Cc1ccccc1)NC(=O)c1ccc(F)cc1)C(=O)N[C@@H](CCCN=C(N)N)C(=O)N[C@@H](Cc1c[nH]c2ccccc12)C(N)=O` [Compound 23], the half-life in data set [3] is 1100 h. The same compound registered an activity at 0.01 µM at GPR54 [1] of 0.7%. In addition, at MMP9, the “retention after treatment with MMP9” value is listed as “retained even after 72 hr with scarce decomposition”.
As to `CC(C)C[C@H](NC(=O)CNC(=O)[C@H](Cc1ccccc1)NC(=O)[C@H](CO)NC(=O)[C@H](CC(N)=O)NC(=O)[C@H](Cc1c[nH]c2ccccc12)NC(=O)[C@H](CC(N)=O)NC(=O)[C@@H](N)Cc1ccc(O)cc1)C(=O)N[C@@H](CCCNC(=N)N)C(=O)N[C@@H](Cc1ccccc1)C(N)=O` [Kisspeptin-10, reference compound], the QIC on GPR54 [4] (IC50 of compound divided by IC50 of kisspeptin-10) was determined as 1. For the same compound, at GPR54 [4] ([125I]-Metastin 40-54 as labeled ligand, membrane fraction), the IC50 was 0.07 to 0.12 nM. Further, the remaining at 48 h on MMP2 (isolated matrix protease MMP2, read-out: amount retained after treatment with MMP2) is roughly 65%. Moreover, the QEC at GPR54 [1] (EC50 of compound divided by EC50 of kisspeptin-10) is 1.
In data set [3], `CC(C)CC(C[C@H](O)CNC(=O)[C@H](Cc1ccccc1)NC(=O)c1ccc(F)cc1)C(=O)N[C@@H](CCCNC(=N)N)C(=O)N[C@@H](Cc1c[nH]c2ccccc12)C(N)=O` (single isomer, unassigned) [Compound 25a] had a t1/2 of 120 h. For the same compound, on GPR54 [1], the “% Activity” value was 13.8%.
In the same order, the values of `CC(C)CC(C[C@@H](O)CNC(=O)[C@H](Cc1ccccc1)NC(=O)c1ccc(F)cc1)C(=O)N[C@@H](CCCNC(=N)N)C(=O)N[C@@H](Cc1c[nH]c2ccccc12)C(N)=O` (single isomer, unassigned) [Compound 24a] are 470 h and 0.6%.
Regarding `CC(C)C[C@H](/C=C/CNC(=O)[C@H](Cc1ccccc1)NC(=O)c1ccc(F)cc1)C(=O)N[C@@H](CCCN=C(N)N)C(=O)N[C@@H](Cc1c[nH]c2ccccc12)C(N)=O` [Compound 19], the half-life in data set [3] was 38 h. Further, the “retention after treatment with MMP2” value at MMP2 is “retained even after 48 hr with scarce decomposition”. The compound also yielded an activity at 0.01 µM on GPR54 [1] of 97.6%. Further, on MMP9, the “retention after treatment with MMP9” value is recorded as “retained even after 72 hr with scarce decomposition”.

These data come from patent US8592379B2, “Metastin derivative and use thereof” (Kyoto University, priority 2008, dated 2013).
